Reference: PubChem BioAssay (NCI)
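Dose response: 5 concentrations. Exposure: 48 h. Format: 96-well plates. Endpoint: linear interpolation; highest concentration if not reached. Here, GI50 denotes the concentration required for 50% inhibition of growth. TGI is the concentration that stops growth completely.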

What was measured:
Test in all cases: NCI-60 cell line screen, 48 h
A549 NSCLC = system: A549 NSCLC
UACC-62 melanoma = system: UACC-62 melanoma
RPMI-8226 leukemia = system: RPMI-8226 leukemia
SN12C renal = system: SN12C renal
EKVX NSCLC = system: EKVX NSCLC
HCT-15 colon = system: HCT-15 colon
OVCAR-8 ovarian = system: OVCAR-8 ovarian
TK-10 renal = system: TK-10 renal
SF-268 CNS = system: SF-268 CNS
NCI-H226 lung = system: NCI-H226 lung

| SMILES | TGI (A549 NSCLC) | TGI (UACC-62 melanoma) | TGI (RPMI-8226 leukemia) | TGI (SN12C renal) | TGI (EKVX NSCLC) | TGI (HCT-15 colon) | TGI (OVCAR-8 ovarian) | TGI (TK-10 renal) | TGI (SF-268 CNS) | TGI (NCI-H226 lung) | GI50 (UACC-62 melanoma) | GI50 (RPMI-8226 leukemia) | GI50 (SN12C renal) | GI50 (NCI-H226 lung) | GI50 (OVCAR-8 ovarian) |
| --- | --- | --- | --- | --- | --- | --- | --- | --- | --- | --- | --- | --- | --- | --- | --- |
| O=C1/C(=C/Cc2ccco2)N=C(c2ccccc2)N1c1nc2ccc(Sc3ccccc3)cc2[nH]1 | > 100 µM | 83.1 µM | > 100 µM | 34.9 µM | > 100 µM | > 100 µM | 62.6 µM | > 100 µM | 58.1 µM |  |  |  |  |  |  |
| C#CCN1C(=O)CN2C(Cl)(Cl)C2(c2ccccc2)c2cc(Cl)ccc21 (stereo not drawn) |  |  | > 100 µM | > 100 µM | > 100 µM | > 100 µM | > 100 µM | > 100 µM | > 100 µM | > 100 µM |  |  |  |  |  |
| CSCCC(NOC(=O)Cc1ccccc1)P(=O)(O)c1ccccc1 (stereo not drawn) | > 100 µM |  | > 100 µM | > 100 µM |  | > 100 µM | > 100 µM | > 100 µM |  | > 100 µM |  |  |  |  |  |
| O=C(NC1CCCCC1)N1CCNC1=S | > 100 µM |  | > 100 µM | > 100 µM | > 100 µM | > 100 µM | > 100 µM | > 100 µM | > 100 µM | > 100 µM |  |  |  |  |  |
| O=C(C#Cc1ccccc1)Nc1ccccc1CC(c1c[nH]c2ccccc12)c1c[nH]c2ccccc12 | > 100 µM | 22 µM | 16.8 µM | 30 µM | 86.1 µM |  | 39.7 µM | 96.6 µM | > 100 µM | 35.2 µM |  |  |  |  |  |
| COc1ccc(/C=N/NC(=O)NCCNCCO)cc1 | > 100 µM | > 100 µM | > 100 µM | > 100 µM |  | > 100 µM | > 100 µM | > 100 µM | > 100 µM | > 100 µM |  |  |  |  |  |
| CCCN1CCN(c2ccc3nc(-c4ccc5nc(-c6ccc(OCC)cc6)[nH]c5c4)[nH]c3c2)CC1 |  | 26.7 µM | 2.85 µM | > 100 µM |  |  |  |  |  | 32.9 µM | 1.07 µM | 0.382 µM | > 100 µM | 10.1 µM |  |
| N#Cc1ccccc1C#C/C=C\C#Cc1ccccn1 | 56.5 µM | 37 µM |  | 47.8 µM | 57.7 µM | 70 µM | 30.3 µM | 96.2 µM | 48.4 µM |  |  |  |  |  |  |
| CC(C)C(C=O)C(O)(C(F)(F)F)C(F)(F)F (stereo not drawn) | > 100 µM | > 100 µM | > 100 µM |  | > 100 µM | > 100 µM | > 100 µM | > 100 µM |  | > 100 µM |  |  |  |  |  |
| Cn1c(SCc2ccc([N+](=O)[O-])cc2)nnc1C12CC3CC(CC(C3)C1)C2 | > 10 µM | > 10 µM | > 10 µM | > 10 µM | > 10 µM | > 10 µM | > 10 µM |  | > 10 µM | > 10 µM |  |  |  |  |  |
| C#CCn1c(=O)c2cc(OC)c(OC)cc2n(CC#C)c1=O | > 10 µM |  | > 10 µM | > 10 µM | > 10 µM | > 10 µM | > 10 µM | > 10 µM | > 10 µM | > 10 µM |  |  |  |  |  |
| CCc1cc2c(cc1O)CC[C@@H]1[C@@H]2CC[C@]2(C)[C@@H](O)CC[C@@H]12 | 21.3 µM |  |  | 20 µM | 25.5 µM | 29.2 µM | 22.4 µM | 60.9 µM | 24.6 µM | 26.6 µM |  |  | 7.3 µM |  |  |
| Cc1ccc2c(=O)cc(-c3ccccc3)[nH]c2n1 | > 100 µM |  | > 15.1 µM | > 36 µM | > 100 µM | 6.3 µM | 0.853 µM | > 9.36 µM | > 100 µM | 9.69 µM |  |  |  |  |  |
| COc1ccc2nc3c(nc2c1)C(C)(C)C=C3c1ccc(Br)cc1 | > 100 µM |  | > 100 µM | > 100 µM | > 100 µM | > 100 µM | > 100 µM | > 100 µM | > 100 µM | > 100 µM |  |  |  |  |  |
| Cc1cc2nc3c(C)c4ccccc4c(C)n3c2cc1C | > 10 µM | > 10 µM | > 10 µM | > 10 µM | > 10 µM | 6.14 µM | > 10 µM | > 10 µM | > 10 µM |  |  |  |  |  |  |
| O=C(N/N=C/c1ccc(O)cc1)NNCCO | > 100 µM | > 100 µM |  | > 100 µM |  | > 100 µM | > 100 µM | > 100 µM |  | > 100 µM |  |  |  |  |  |
| CC(=O)O[C@H]1C(=O)[C@@]2(C)C(C(OC(=O)c3ccccc3)[C@]3(O)CC(OC(=O)C(O)C(NC(=O)c4cccc(Cl)c4)c4ccccc4)C(C)=C1C3(C)C)[C@]1(OC(C)=O)CO[C@@H]1C[C@@H]2O (stereo partly drawn) | > 10 µM |  | > 10 µM | > 10 µM | > 10 µM | > 10 µM | > 10 µM | > 10 µM | > 10 µM | > 10 µM |  |  |  |  |  |
| CCN(CC)CCNC(=O)C1COc2ccc(-c3cc(=O)c4ccccc4o3)cc2O1 (stereo not drawn) | 49.8 µM | 31.9 µM | 55.2 µM | 55.1 µM | 61 µM | 31.8 µM | 33.4 µM |  | 55.9 µM | 31.3 µM |  |  |  |  |  |
| CCC(/C(=N/NC(=O)C[N+](C)(C)C)c1ccccc1)C1OC(=O)c2ccccc21 (stereo not drawn) | > 100 µM | > 100 µM | > 100 µM | > 100 µM |  | > 100 µM | > 100 µM | > 100 µM | > 100 µM | > 100 µM |  |  |  |  |  |
| N#Cc1cc([N+](=O)[O-])ccc1NC(=O)C(=O)Nn1c(=S)[nH]c2ccccc2c1=O | > 100 µM |  | > 100 µM | > 100 µM | > 100 µM | > 100 µM | > 100 µM | > 100 µM | > 100 µM | > 100 µM |  |  |  |  |  |
| Nc1nc2c(nnn2C2C=C(CO)C(O)C2O)c(=O)[nH]1 (stereo not drawn) | > 100 µM | > 100 µM |  | > 100 µM | > 100 µM | > 100 µM | > 100 µM | > 100 µM | > 100 µM | > 100 µM |  |  |  |  |  |
| CCN1CC2(CO)CCC(OC)C34C5CC6C(OC)CC(O)(C5C6OC)C(O)(C(OC)C23)C14 (stereo not drawn) | > 375 µM | > 375 µM | > 375 µM | > 375 µM | > 65 µM | > 375 µM | > 375 µM |  | > 375 µM | > 375 µM |  |  |  |  |  |
| CCOC(=O)/C(C(N)=O)=C(/O)c1cnccn1 | > 100 µM | > 100 µM | > 100 µM | > 100 µM | > 100 µM | > 100 µM | > 100 µM |  | > 100 µM | > 100 µM |  |  |  |  |  |
| COc1ccc(CNCCN2C(=O)c3ccc4c5c(ccc(c35)C2=O)C(=O)N(CCNCc2ccc(OC)c(OC)c2OC)C4=O)c(OC)c1OC |  |  |  | 0.207 µM |  |  | 0.648 µM |  |  |  |  |  | 0.0942 µM |  | 0.16 µM |
